Consider two compounds from patent publication US8242078B2, “Therapeutics to inhibit MLL-menin interaction for treating leukemia” (The University of Chicago, priority 2006, dated 2012).

In data set [1] the test system is normal human CD34+ cells. The experiment in a line: Erythroid differentiation of normal human CD34+ cells, day 10. It counts as cell-based. As to conditions: 7.5 μm or 10 μm. As for the experimental part:
(§1) To assess the effects of TAT-MLL peptide on hematopoiesis, normal human CD34^+ cells were incubated with either the TAT-MLL peptide or the TAT-scrambled peptide at a concentration of either 7.5 μm or 10 μm. There was no effect of either the TAT-MLL peptide or the TAT-scrambled peptide on myeloid or erythroid differentiation. […] CD14-PE, CD15-FITC, CD71-FITC and GlyA (CD235a)-PE antibodies were obtained from Becton Dickinson

The test system of data set [2] is normal human CD34+ cells. Briefly: Myeloid differentiation of normal human CD34+ cells, day 10. Type of data set: cell-based. As to conditions: 7.5 μm or 10 μm. As for the experimental part: as §1
For data set [3], the target named is T1, interaction of transfected MLL with endogenous menin (Homo sapiens, UniProt O00255).
T1 construct: endogenous in cells; host or cells: 293 cells (lysate; cells transfected with FLAG-MLL 1-330)
T1 sequence (O00255 1-610): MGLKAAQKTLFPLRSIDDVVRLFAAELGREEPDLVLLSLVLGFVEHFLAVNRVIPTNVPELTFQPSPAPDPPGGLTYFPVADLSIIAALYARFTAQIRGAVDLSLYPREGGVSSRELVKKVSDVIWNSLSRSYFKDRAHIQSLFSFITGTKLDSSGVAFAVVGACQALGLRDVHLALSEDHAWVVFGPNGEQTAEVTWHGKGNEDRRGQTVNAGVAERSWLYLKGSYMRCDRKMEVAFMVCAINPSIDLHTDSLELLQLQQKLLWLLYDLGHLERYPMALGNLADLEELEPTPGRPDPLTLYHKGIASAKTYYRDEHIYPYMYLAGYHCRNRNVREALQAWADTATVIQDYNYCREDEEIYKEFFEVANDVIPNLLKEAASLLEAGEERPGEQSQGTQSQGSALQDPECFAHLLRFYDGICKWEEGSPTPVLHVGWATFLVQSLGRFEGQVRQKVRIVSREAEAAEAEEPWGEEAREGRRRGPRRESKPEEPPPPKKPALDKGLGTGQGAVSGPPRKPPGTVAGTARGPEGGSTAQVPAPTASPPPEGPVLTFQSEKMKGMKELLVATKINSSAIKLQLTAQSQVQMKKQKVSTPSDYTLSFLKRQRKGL
Briefly: Disruption of binding of transfected FLAG-tagged MLL 1-330 to endogenous menin (anti-FLAG immunoprecipitation, anti-menin Western blot). As to conditions: each peptide tested at 10, 20, and 30 μM. As for the experimental part: To determine the precise domain that mediates the binding of MLL to menin, a series of peptides from the N-terminus of MLL were synthesized. To assess disruption of binding of transfected MLL to endogenous menin, a FLAG-tagged MLL 1-330 construct was transfected into 293 cells and the cell lysates were incubated with a series of peptides listed below or with water as a control. Cell lysates were immunoprecipitated with anti-FLAG antibody (Sigma), separated by SDS-PAGE and blotted with an anti-menin antibody (Bethyl Laboratories Inc, or Santa-Cruz). The amino acid numbers from the N-terminus of MLL are indicated below (preceding the amino acid sequence) for the peptides analyzed for their ability to disrupt the interaction of MLL and menin.
Conditional inactivation of menin results in the reversal of the transforming properties of MLL fusion proteins. A high affinity menin binding domain has been localized to the N-terminal residues of MLL, and deletion of residues 6 through 10 of MLL prevents MLL-ELL from transforming hematopoietic progenitor cells. To target the MLL-menin interaction, a series of peptides were developed for the potential to block the interaction of menin with MLL. To establish the activity of these peptides, lysates of cells transfected with FLAG-tagged N-terminal MLL sequences were examined. The lysates were immunoprecipitated with a FLAG antibody, incubated with either an MLL peptide or a control scrambled peptide, and then blotted with an anti-menin antibody. […] To examine the activity of the TAT-MLL peptide, mouse and human leukemia cell lines were treated with the TAT-MLL peptide. […] (#TIB-202, American Type Culture Collection, Manassas, Va.).

For another data set, the system named is Leukemia cell lines. Briefly: Relative growth inhibition of TAT-MLL vs TAT-MLL mutant (MTS cell proliferation assay). Type of data set: cell-based.

Entries after “also recorded” stand apart in the source; their conditions may differ. Peptide text beside a SMILES is read from it.

For `C[C@H](NC(=O)[C@H](CCCNC(=N)N)NC(=O)CNC(=O)CNC(=O)[C@H](CCCNC(=N)N)NC(=O)[C@H](CCCNC(=N)N)NC(=O)[C@H](CCCNC(=N)N)NC(=O)[C@H](CCC(N)=O)NC(=O)[C@H](CCCNC(=N)N)NC(=O)[C@H](CCCNC(=N)N)NC(=O)[C@H](CCCCN)NC(=O)[C@H](CCCCN)NC(=O)[C@@H](N)CCCNC(=N)N)C(=O)N[C@@H](Cc1ccccc1)C(=O)N[C@@H](CCCNC(=N)N)C(=O)N1CCC[C@H]1C(=O)N[C@@H](CS)C(=O)N1CCC[C@H]1C(=O)N[C@@H](CCCNC(=N)N)C(=O)N[C@@H](Cc1c[nH]c2ccccc12)C(=O)NCC(=O)O` [TAT-scrambled, RKKRRQRRR-GG-RAFRPCPRWG (SEQ ID NO: 18), reference compound] (H-RKKRRQRRRGGRAFRPCPRWG-OH), in the data set on normal human CD34+ cells [1], the “effect on erythroid differentiation (in words)” value is on record as “no effect”. Moreover, the “effect on myeloid differentiation (in words)” value in the data set with normal human CD34+ cells [2] is given as “no effect”.
In the case of “RKKRRQRRR-GG-CRWRFGARGG (SEQ ID NO: 16) (RKKRRQRRRGGCRWRFGARGG) [TAT-MLL-G 5-14, TAT-MLL 5-14 peptide with prolines replaced by glycines, used as a control, reference compound]”, the “inhibition of the binding of transfected MLL 1-330 to endogenous menin (Western blot, FIG. 2)” value in data set [3] is on record as “did not inhibit the binding of MLL1-330 with menin; also recorded: did not block the interaction of MLL with menin”. Moreover, in the data set with Leukemia cell lines, the “effect on proliferation, TAT-MLL vs TAT-MLL mutant (FIG. 6)” value is reported as “significantly decreases the effect of the peptide on proliferation”.
